The values that follow come from paper PMC6151589, “Identification of Optically Active Pyrimidine Derivatives as Selective 5-HT2C Modulators” (Molecules : A Journal of Synthetic Chemistry and Natural …, 2017).

By inhibition is commonly meant how much of the control response was suppressed. Read a high inhibition as strong suppression. By Ki is commonly meant a measure of affinity in units of concentration, obtained from inhibition or displacement.

Assay [1] deals with T1, 5-HT2C (Homo sapiens, UniProt P28335).
T1 construct: gene HTR2C; human recombinant receptor; crude membrane fractions of transfected cells (CHO-K1; HEK293 or CHO)
T1 sequence (P28335 33-458): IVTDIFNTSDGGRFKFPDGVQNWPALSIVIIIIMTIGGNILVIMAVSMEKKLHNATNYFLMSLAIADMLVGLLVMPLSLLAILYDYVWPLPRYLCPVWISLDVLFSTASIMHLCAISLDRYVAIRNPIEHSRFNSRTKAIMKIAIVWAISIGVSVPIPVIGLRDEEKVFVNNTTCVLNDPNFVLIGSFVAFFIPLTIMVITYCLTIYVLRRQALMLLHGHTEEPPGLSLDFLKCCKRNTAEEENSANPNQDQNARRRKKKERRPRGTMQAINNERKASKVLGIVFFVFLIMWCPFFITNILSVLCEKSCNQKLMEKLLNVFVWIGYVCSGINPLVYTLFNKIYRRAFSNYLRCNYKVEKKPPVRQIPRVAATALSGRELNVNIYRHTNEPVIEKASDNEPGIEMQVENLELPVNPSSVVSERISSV
In words: biochemical. Further details: species or system HEK293 or CHO; competitive radioligand binding on crude membranes, filtration and scintillation counting. How it is done: (§1) Eleven dilutions (5 × assay concentration) of the test and reference compounds (Table S1) were prepared in standard binding buffer (50 mM tris(hydroxymethyl)-aminomethane-HCl (Tris-HCl), 10 mM MgCl2, 1 mM ethylenediaminetetraacetate (EDTA), pH 7.4) by serial dilution: 0.05 nM, 0.5 nM, 1.5 nM, 5 nM, 15 nM, 50 nM, 150 nM, 500 nM, 1.5 μM, 5 μM, and 50 μM. The radioligand (Table S3) was diluted to five times the assay concentration in standard binding buffer. Aliquots ([…]) of the radioligand were dispensed into the wells of a 96-well plate containing […] of standard binding buffer. Triplicate aliquots ([…]) of the test and reference compound dilutions were then added. Finally, crude membrane fractions ([…]) of cells (HEK293 or CHO) expressing human recombinant receptors were dispensed into each well. A total of […] of the reaction mixtures was incubated at room temperature and shielded from light for 1.5 h, and was then harvested by rapid filtration onto Whatman GF/B glass fiber filters presoaked with 0.3% polyethyleneimine, by using a 96-well Brandel harvester (Gaithersburg, MD, USA). Four rapid washes were performed with chilled standard binding buffer (500 mL) to decrease nonspecific binding. Filters were placed in 6 mL scintillation tubes and allowed to dry overnight. The next day, 4-mL of EcoScint scintillation cocktail (National Diagnostics) was added to each tube. The tubes were capped, labeled, and counted by […] scintillation counting. The filter mats were dried, and the scintillant was melted onto the filters, then the radioactivity retained on the filters was counted in a Microbeta scintillation counter. The IC50 values were obtained by using the Prism 4.0 program (GraphPad Software, La Jolla, CA, USA) and were converted into Ki values. Each compound was tested at least in triplicate. With each enantiomer (R)- or (S)-5d and 5e in hand, the optically active pyrimidine derivatives 4d–4e were synthesized following the same reaction sequences (Scheme 3). Finally, compounds 4d and 4e were assessed for their binding affinity to 5-HT2 receptor subtypes by radioligand binding assays. […] A further evaluation of these compounds for other 5-HT receptor subtypes was also performed and is provided in the supplementary data (Table S2). […] Considering the potencies and selectivities of 4, we can conclude that (R,R)-4e would be a viable candidate for a selective 5-HT2C modulator.

Assay [2] addresses T2, 5-HT7 (Homo sapiens, UniProt P34969).
T2 construct: gene HTR7; human recombinant receptor, crude membranes of HEK293 or CHO cells
In words: biochemical. Set-up: species or system HEK293 or CHO; competitive radioligand binding on crude membranes, filtration and scintillation counting. To be noted: for Ki: read-out: Ki (nM), 7. How it is done:
as §1

In assay [3] the target is T3, 5-HT3 (Homo sapiens, UniProt P46098).
T3 construct: gene HTR3A; human recombinant receptor, crude membranes of HEK293 or CHO cells
T3 sequence (P46098 1-478): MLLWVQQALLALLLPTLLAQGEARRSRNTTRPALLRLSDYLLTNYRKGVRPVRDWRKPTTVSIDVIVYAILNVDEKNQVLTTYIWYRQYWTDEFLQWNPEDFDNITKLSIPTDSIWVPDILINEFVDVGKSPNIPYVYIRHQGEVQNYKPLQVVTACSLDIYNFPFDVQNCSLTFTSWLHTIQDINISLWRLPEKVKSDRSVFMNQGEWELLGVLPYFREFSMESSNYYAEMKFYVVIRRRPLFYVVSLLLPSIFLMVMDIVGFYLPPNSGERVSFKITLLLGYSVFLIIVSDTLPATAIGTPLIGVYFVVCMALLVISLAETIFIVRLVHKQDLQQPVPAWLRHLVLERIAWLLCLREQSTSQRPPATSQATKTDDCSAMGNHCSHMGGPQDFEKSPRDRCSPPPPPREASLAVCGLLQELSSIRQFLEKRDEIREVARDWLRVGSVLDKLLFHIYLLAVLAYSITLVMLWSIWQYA
In words: biochemical. Conditions: for Ki: read-out: Ki (nM), 3. Further details: species or system HEK293 or CHO; competitive radioligand binding on crude membranes, filtration and scintillation counting. How it is done: as §1

Assay [4] addresses T1, 5-HT2C. In words: radioligand displacement, membranes. It is filed as binding. From the text:
radioligand displacement, membranes on 5-HT2C
For orientation: In a radioligand displacement assay an active substance lowers the binding of a labelled ligand.

T2 sequence (P34969 whole entry): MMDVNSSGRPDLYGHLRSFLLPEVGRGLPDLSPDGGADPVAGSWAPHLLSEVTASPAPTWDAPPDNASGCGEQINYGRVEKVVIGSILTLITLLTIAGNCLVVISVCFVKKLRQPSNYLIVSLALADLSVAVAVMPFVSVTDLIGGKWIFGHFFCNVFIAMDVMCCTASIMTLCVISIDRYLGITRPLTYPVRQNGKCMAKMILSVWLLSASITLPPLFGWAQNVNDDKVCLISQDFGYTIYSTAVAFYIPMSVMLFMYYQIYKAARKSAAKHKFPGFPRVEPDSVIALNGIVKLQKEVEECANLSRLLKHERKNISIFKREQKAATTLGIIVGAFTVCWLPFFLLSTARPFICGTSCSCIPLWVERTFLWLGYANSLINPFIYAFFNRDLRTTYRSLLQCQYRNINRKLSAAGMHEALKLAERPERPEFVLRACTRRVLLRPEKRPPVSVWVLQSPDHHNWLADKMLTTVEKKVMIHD

Take `C[C@H](Oc1nc(N2CCNC[C@H]2C)ncc1F)c1ccc(F)cc1` [(S,R)-4e, 5-Fluoro-4-((S)-1-(4-fluorophenyl)ethoxy)-2-((R)-2-methylpiperazin-1-yl)pyrimidine]: the results for the inhibition at 10 µM in assay [1], in assay [2] and in assay [3] were 97.8%, 64.8% and 70.1%, respectively. For the same compound, the Ki in assay [2] is 946 nM; in assay [3], 1000 nM; in assay [4], 23 nM.

As to `C[C@H](Cc1cccc(F)c1)Oc1nc(N2CCNC[C@H]2C)ncc1F` [compound 3, pyrimidine analogue 3], the inhibition at 10 µM in assay [1] was 98.2%; in assay [2] it was 94.7%; in assay [3], 75%. The Ki came out at 84 nM in assay [2] and 241 nM in assay [3].

Regarding `C[C@@H]1CNCCN1c1ncc(F)c(O[C@H](C)c2cccc(F)c2)n1` [(R,R)-4d, 5-Fluoro-4-((R)-1-(3-fluorophenyl)ethoxy)-2-((R)-2-methylpiperazin-1-yl)pyrimidine], the inhibition at 10 µM in assay [1] is 98.5%; in assay [2], 84.4%; in assay [3], 89.4%. In addition, the Ki in assay [2] turned out to be 444 nM; in assay [3], 242 nM; in assay [4], 1.2 nM.

With `C[C@H](Oc1nc(N2CCNC[C@H]2C)ncc1F)c1cccc(F)c1` [(S,R)-4d, 5-Fluoro-4-((S)-1-(3-fluorophenyl)ethoxy)-2-((R)-2-methylpiperazin-1-yl)pyrimidine], the inhibition at 10 µM in assay [1] is 97.7%; in assay [2], 56.9%; in assay [3], 78.6%. In addition, the Ki in assay [2] was found to be 766 nM; in assay [3] it was 501 nM; in assay [4] it was 14 nM.

Regarding `C[C@@H]1CNCCN1c1ncc(F)c(O[C@H](C)c2ccc(F)cc2)n1` [(R,R)-4e, 5-Fluoro-4-((R)-1-(4-fluorophenyl)ethoxy)-2-((R)-2-methylpiperazin-1-yl)pyrimidine], the inhibition at 10 µM is 94.2% in assay [1], 87.6% in assay [2] and 87.8% in assay [3]. In addition, the results for the Ki in assay [2], in assay [3] and in assay [4] were 236 nM, 242 nM and 4 nM, respectively.
